molecular target: T1, human m4 receptors (Homo sapiens, UniProt P08173); assay: M4 assay: cyclic AMP accumulation/production in pertussis toxin-treated CHO m4 cells (% maximum stimulation compared to oxotremorine-M); assay type: cell-based; conditions: read-out: % Maximum Stimulation Compared to Oxotremorine-M
T1 construct: expressed in transfected cells; host or cells: CHO K1
Method: II. M4 muscarinic receptor […] assay:
Cyclic AMP Accumulation in Pertussis Toxin-Treated CHO m4 Cells.
CHO K1 cells transfected with human m4 receptors were grown to near confluency in T-150 flasks using Dulbecco's Modified Eagle Medium (DMEM) containing 10% fetal bovine serum. Cells were detached with 0.05% trypsin, 0.53 mM EDTA, and were suspended in medium containing 100 ng/ml pertussis toxin. Cells were plated at 30,000 cells per well into 96 well plates. Eighteen to twenty hours later the medium was removed and the cells were washed with serum-free medium. Attached cells were incubated at 37_C for one hour after addition of […] of serum free DMEM containing 1 mM 3-isobutyl-1-methylxanthine and 1 mM forskolin plus or minus drugs being tested. Incubations were terminated with […] per well of serum free DMEM containing 0.3%, triton-X-100. After stopping incubations the plates were allowed to sit for 20 minutes to extract cAMP and samples were then diluted 2.5-fold and were assayed using the scintillation proximity assay of Amersham (Arlington Heights, Ill.).
Representative results from the M4 assay are as follows:
Stimulation of cyclic AMP Production in CHO-m4 cells.

T1 sequence (P08173 whole entry): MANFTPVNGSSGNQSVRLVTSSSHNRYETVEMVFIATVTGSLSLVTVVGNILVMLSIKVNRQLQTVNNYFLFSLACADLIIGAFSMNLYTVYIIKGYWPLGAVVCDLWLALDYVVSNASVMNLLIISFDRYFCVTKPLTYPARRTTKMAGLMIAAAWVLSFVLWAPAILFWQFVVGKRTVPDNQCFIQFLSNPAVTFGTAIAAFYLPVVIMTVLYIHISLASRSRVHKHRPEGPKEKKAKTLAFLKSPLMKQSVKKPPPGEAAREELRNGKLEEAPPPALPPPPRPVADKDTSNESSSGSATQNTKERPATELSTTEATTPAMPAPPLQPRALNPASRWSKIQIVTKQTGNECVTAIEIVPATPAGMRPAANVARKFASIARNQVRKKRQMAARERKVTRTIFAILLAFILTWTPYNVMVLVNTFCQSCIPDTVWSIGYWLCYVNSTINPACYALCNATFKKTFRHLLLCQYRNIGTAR

| SMILES | Emax |
| --- | --- |
| O=C(N[C@H]1c2cc(N=CN3CCCC3)ccc2C[C@@H]1O)C1CCCCC1 (relative stereo) [Compound 11] | 34% |
| O=C(N[C@H]1c2cc(N=CN3CCCC3)ccc2C[C@@H]1O)c1cccnc1Cl (relative stereo) [Compound 12] | 26% |
| N#Cc1ccc(C(=O)N[C@H]2c3cc(N=CN4CCCC4)ccc3C[C@@H]2O)cc1 (relative stereo) [Compound 13] | < 20% |
| O=C(N[C@H]1c2cc(N=CN3CCCC3)ccc2C[C@@H]1O)c1cc(Cl)cc(Cl)c1 (relative stereo) [Compound 14] | 100% |
| O=C(N[C@H]1c2cc(N=CN3CCCC3)ccc2C[C@@H]1O)c1cccc2ccccc12 (relative stereo) [Compound 15] | 76% |
| O=C(N[C@H]1c2cc(N=CN3CCCC3)ccc2C[C@@H]1O)c1ccc2ccccc2c1 (relative stereo) [Compound 17] | 56% |
| O=C(N[C@H]1c2cc(N=CN3CCCC3)ccc2C[C@@H]1O)c1ccc(C(F)(F)F)cc1 (relative stereo) [Compound 18] | 61% |
| O=C(N[C@H]1c2cc(N=CN3CCCC3)ccc2C[C@@H]1O)C(F)(F)F (relative stereo) [Compound 19] | < 20% |
| O=C(N[C@H]1c2cc(N=CN3CCCC3)ccc2C[C@@H]1O)c1ccc([N+](=O)[O-])cc1Cl (relative stereo) [Compound 20] | 69% |
| O=C(N[C@H]1c2cc(N=CN3CCCC3)ccc2C[C@@H]1O)c1cccs1 (relative stereo) [Compound 21] | 23% |
| O=C(N[C@H]1c2cc(N=CN3CCCC3)ccc2C[C@@H]1O)c1cc(F)cc(F)c1 (relative stereo) [Compound 23] | < 20% |
| O=C(N[C@H]1c2cc(N=CN3CCCC3)ccc2C[C@@H]1O)c1cccc(F)c1F (relative stereo) [Compound 24] | 22% |
| O=C(N[C@H]1c2cc(N=CN3CCCC3)ccc2C[C@@H]1O)c1cccc([N+](=O)[O-])c1 (relative stereo) [Compound 25] | 43% |
| CCCc1ccc(C(=O)N[C@H]2c3cc(N=CN4CCCC4)ccc3C[C@@H]2O)cc1 (relative stereo) [Compound 26] | < 20% |
| Cc1cc(C)c(C(=O)N[C@H]2c3cc(N=CN4CCCC4)ccc3C[C@@H]2O)c(C)c1 (relative stereo) [Compound 27] | < 20% |
| O=C(CSc1ccccc1)N[C@H]1c2cc(N=CN3CCCC3)ccc2C[C@@H]1O (relative stereo) [Compound 28] | < 20% |
| O=C(N[C@H]1c2cc(N=CN3CCCC3)ccc2C[C@@H]1O)c1c(F)ccc(F)c1F (relative stereo) [Compound 29] | < 20% |
| O=C(N[C@H]1c2cc(N=CN3CCCC3)ccc2C[C@@H]1O)c1cccc(F)c1 (relative stereo) [Compound 30] | < 20% |
| O=C(N[C@H]1c2cc(N=CN3CCCC3)ccc2C[C@@H]1O)c1cccc(Cl)c1Cl (relative stereo) [Compound 31] | 45% |

| SMILES | Emax |
| --- | --- |
| O=C(N[C@H]1c2cc(N=CN3CCCC3)ccc2C[C@@H]1O)c1cc(F)ccc1F (relative stereo) [Compound 32] | < 20% |
| O=C(N[C@H]1c2cc(N=CN3CCCC3)ccc2C[C@@H]1O)c1ccc(F)c(F)c1F (relative stereo) [Compound 33] | 45% |
| COc1cccc(C(=O)N[C@H]2c3cc(N=CN4CCCC4)ccc3C[C@@H]2O)c1 (relative stereo) [Compound 34] | 45% |
| O=C(N[C@H]1c2cc(N=CN3CCCC3)ccc2C[C@@H]1O)c1ccccc1C(F)(F)F (relative stereo) [Compound 35] | 65% |
| COc1cc(OC)cc(C(=O)N[C@H]2c3cc(N=CN4CCCC4)ccc3C[C@@H]2O)c1 (relative stereo) [Compound 36] | < 20% |
| Cc1cccc(C(=O)N[C@H]2c3cc(N=CN4CCCC4)ccc3C[C@@H]2O)c1 (relative stereo) [Compound 37] | 76% |
| N#Cc1cccc(C(=O)N[C@H]2c3cc(N=CN4CCCC4)ccc3C[C@@H]2O)c1 (relative stereo) [Compound 38] | < 20% |
| O=C(N[C@H]1c2cc(N=CN3CCCC3)ccc2C[C@@H]1O)c1cc(F)c(F)c(F)c1 (relative stereo) [Compound 39] | 43% |
| O=C(N[C@@H]1c2cc(N=CN3CCCC3)ccc2C[C@H]1O)c1cc(F)c(F)c(F)c1F (relative stereo) [Compound 40] | 96% |
| O=C(N[C@@H]1c2cc(N=CN3CCCC3)ccc2C[C@H]1O)C1CCC1 (relative stereo) [Compound 41] | < 20% |
| O=C(N[C@@H]1c2cc(N=CN3CCCC3)ccc2C[C@H]1O)c1ccccc1Cl (relative stereo) [Compound 44] | 41% |
| CCCCc1ccc(C(=O)N[C@@H]2c3cc(N=CN4CCCC4)ccc3C[C@H]2O)cc1 (relative stereo) [Compound 45] | < 20% |
| O=C(N[C@@H]1c2cc(N=CN3CCCC3)ccc2C[C@H]1O)c1c(Cl)cccc1Cl (relative stereo) [Compound 46] | 154% |
| O=C(N[C@@H]1c2cc(N=CN3CCCC3)ccc2C[C@H]1O)c1c(Cl)cc(Cl)cc1Cl (relative stereo) [Compound 47] | < 20% |
| CN(C)C=Nc1ccc2c(c1)[C@@H](NC(=O)c1ccccc1)[C@H](O)C2 (relative stereo) [Compound 57] | 5% |
| CN(C)C=Nc1ccc2c(c1)[C@@H](NC(=O)c1cc(Cl)cc(Cl)c1)[C@H](O)C2 (relative stereo) [Compound 58] | 74% |
| CCCCOc1ccc(C(=O)N[C@@H]2c3cc(N=CN(C)C)ccc3C[C@H]2O)cc1 (relative stereo) [Compound 59] | 22% |
| CN(C)C=Nc1ccc2c(c1)[C@@H](NC(=O)c1cccc(C#N)c1)[C@H](O)C2 (relative stereo) [Compound 61] | 39% |
| CN(C)C=Nc1ccc2c(c1)[C@@H](NC(=O)C1CCCC1)[C@H](O)C2 (relative stereo) [Compound 62] | 27% |

| SMILES | Emax |
| --- | --- |
| CN(C)C=Nc1ccc2c(c1)[C@@H](NC(=O)c1ccc3ccccc3c1)[C@H](O)C2 (relative stereo) [Compound 63] | 13% |
| CN(C)C=Nc1ccc2c(c1)[C@@H](NC(=O)c1cc(F)cc(C(F)(F)F)c1)[C@H](O)C2 (relative stereo) [Compound 64] | 52% |
| CN(C)C=Nc1ccc2c(c1)[C@@H](NC(=O)c1cc(F)c(F)c(F)c1)[C@H](O)C2 (relative stereo) [Compound 65] | 30% |
| CN(C)C=Nc1ccc2c(c1)[C@@H](NC(=O)C(F)(F)F)[C@H](O)C2 (relative stereo) [Compound 66] | 0% |
| CCc1ccc(C(=O)N[C@@H]2c3cc(N=CN(C)C)ccc3C[C@H]2O)cc1 (relative stereo) [Compound 67] | 7% |
| CN(C)C=Nc1ccc2c(c1)[C@@H](NC(=O)c1sccc1Cl)[C@H](O)C2 (relative stereo) [Compound 68] | 0% |
| CN(C)C=Nc1ccc2c(c1)[C@@H](NC(=O)c1cc3ccccc3s1)[C@H](O)C2 (relative stereo) [Compound 69] | 14% |
| CCCCc1ccc(C(=O)N[C@@H]2c3cc(N=CN(C)C)ccc3C[C@H]2O)cc1 (relative stereo) [Compound 70] | 18% |
| CN(C)C=Nc1ccc2c(c1)[C@@H](NC(=O)c1cccc3ccccc13)[C@H](O)C2 (relative stereo) [Compound 71] | 95% |
| CN(C)C=Nc1ccc2c(c1)[C@@H](NC(=O)c1cccnc1Cl)[C@H](O)C2 (relative stereo) [Compound 73] | 11% |
| CN(C)C=Nc1ccc2c(c1)[C@@H](NC(=O)c1ccc(Cl)nc1)[C@H](O)C2 (relative stereo) [Compound 74] | 8% |
| CN(C)C=Nc1ccc2c(c1)[C@@H](NC(=O)c1ccc(C(F)(F)F)cc1)[C@H](O)C2 (relative stereo) [Compound 75] | 6% |
| CC(=Nc1ccc2c(c1)[C@@H](NC(=O)c1ccc(Cl)c(Cl)c1)[C@H](O)C2)N(C)C (relative stereo) [Compound 76] | 130% |
| O=C(N[C@@H]1c2cc(N=CN3CCCCC3)ccc2C[C@H]1O)c1ccc(Cl)c(Cl)c1 (relative stereo) [Compound 77] | 214% |
| O=C(N[C@@H]1c2cc(N=CN3CCCCC3)ccc2C[C@H]1O)c1cccc(Cl)c1Cl (relative stereo) [Compound 88] | 52% |
| O=C(N[C@@H]1c2cc(N=CN3CCCCC3)ccc2C[C@H]1O)c1cc(Cl)cc(Cl)c1 (relative stereo) [Compound 97] | 36% |
| O=C(N[C@@H]1c2cc(N=CN3CCCCC3)ccc2C[C@H]1O)c1cc(F)cc(F)c1 (relative stereo) [Compound 98] | 73% |
| CN(C)C=Nc1ccc2c(c1)C(NS(=O)(=O)c1ccc(Cl)c(Cl)c1)C(O)C2 (stereo not drawn) [Compound 72] | 4% |

molecular target: muscarinic receptor; assay: not given; conditions: high affinity site; muscarinic receptor in the CNS; read-out: affinity of 3H-Oxo, first of three labeled sites; cited from earlier work

| SMILES | Kd |
| --- | --- |
| C[N+](C)(C)CC#CCN1CCCC1=O [3 H-Oxo] | 0.0018 µM |

same assay, conditions: medium affinity site; muscarinic receptor in the CNS; read-out: affinity of 3H-Oxo, second of three labeled sites; cited from earlier work

| SMILES | Kd |
| --- | --- |
| C[N+](C)(C)CC#CCN1CCCC1=O [3 H-Oxo] | 0.02 µM |

same assay, conditions: third site, not determined under the present conditions; muscarinic receptor in the CNS; read-out: affinity of 3H-Oxo, third of three labeled sites; cited from earlier work

| SMILES | Kd |
| --- | --- |
| C[N+](C)(C)CC#CCN1CCCC1=O [3 H-Oxo] | 3 µM |

system: M1 -site muscarinic receptors; assay: not given; conditions: M1 -site versus M2 -sites; cited from earlier work

| SMILES | selectivity of pirenzepine binding for muscarinic receptor subtype |
| --- | --- |
| CN1CCN(CC(=O)N2c3ccccc3C(=O)Nc3cccnc32)CC1 [Pirenzepine, pirenzepine, [N-methyl-^3 H]] | selective for M1 -sites |

From patent US6211364A, “Process for preparing indane-like compounds” (Eli Lilly and Company, priority 1999, dated 2001)
